Source: patent US6905706B2, “Medicinal herbal extract carpediol for treating depression” (Swedish Herbal Institute, priority 2002, dated 2005)
Marks after values point to notes of the source that are not given here.

Columns and labels:
Male Wistar rats = assay: Behavioral despair "forced swimming" test; format: in vivo, rat; settings: 30 min pretreatment; for Duration of immobility: mean ± SEM
Source text: Behavioral despair was proposed as a model to test for antidepressant activity by Porsolt et al (25-27). […] This behavior reflects a state of despair which can be reduced by several agents which are therapeutically effective in human depression.
Procedure—The procedure described by Porsolt et al. (25-27) was used with minor modifications described by Chatterjee et al. (28-29). Male Wistar rats weighing 170-200 g were used. They were brought to the laboratory at least one day before the experiment and were housed separately in cages with free access to food and water. Naive rats were individually forced to swim inside a vertical glass cylinder (height: 50 cm; diameter: 25 cm, containing 20 cm of water maintained at 25° C.). […] After 2-3 minutes, activity began to subside and to be interspersed with phases of immobility or floating of increasing length. After 5-6 minutes, immobility reached a plateau where the rats remained immobile for approximately 80% of the time. After 15 minutes in the water, the rats were removed and allowed to dry in a heated enclosure (32° C.) before being returned to their home cages. Total immobility time, i.e., the time of complete cessation of swimming with the head floating just above water level, was quantified 48 hours later after re-exposing them to the water for 5 minutes. They were placed in the cylinder 48 hours later and the total duration of immobility was measured during a 5 minute test. […] An animal was judged to be immobile whenever it remained floating passively in the water in a slightly hunched but upright position, its nose just above the surface. Test samples (Hypericum extracts: HP, HPSE, Jarsin 300, HRFC, Crassulaceae special extracts, Carpediol) and standard drugs (amitriptyline and Imipramine) were administered 3 times immediately after pre-exposure, and 24 and one hour prior to testing (re-exposure) as described in Chatterjee et al., Antidepressant activity of Hypericum perforatum and Hyperforin: the neglected possibility. Pharmacopsychiatry. 31 (Suppl 1):7-15 1998), which is incorporated by reference herein in its entirety.
Evaluation—Duration of immobility was measured in controls and animals treated with various doses of a test drug or standard. Antidepressant drugs, but also stimulants like amphetamine and caffeine, reduced duration of immobility. Dose-responses were evaluated.
Two series of experiments were performed with the following test drugs:
Series A: HP, HPSE, HRFC, CRE, Jarsin, amitriptyline.
Series B: CRE-A, CRE-B, CRE-C, CRE-D, ASFC, imipramine.
They were group-housed, four per cage at ambient temperature of 20±2° and 40-50% relative humidity, with a 12 hour dark/12 hour light cycle (lighting on time 8 a.m.). The animals had free access to pellet chow (Comby) and drinking water.
The extracts were administered once daily for 3 consecutive days. Experiments were performed on day 3, 1 hour after the last drug or vehicle application. Amitriptyline was used as the standard antidepressant, and was administered in a single dose of 3 mg/kg (p.o.) with a pretreatment time of 30 min.
They were administered in a volume of 5 ml/kg (p.o.). The extracts were administered once daily for 3 consecutive days. Experiments were performed on day 3, 1 hour after the last drug or vehicle application. Imipramine-HCl diluted with water to concentration of 6 mg/ml, positive control was used as the standard antidepressant. Imipramine was administered in a single dose of 30 mg/kg (p.o.) with a pretreatment time of 30 minutes. All behavioral studies were performed between 1-3 p.m. and recorded by a video camera. The tapes were evaluated afterwards by an observer who was not informed about the type of treatment each animal had received.
Statistics—Statistical analysis of the duration of immobilization time of rats in swimming test was performed by unpaired two tailed Students t-test with significance 95% confidence interval. […]

[1] = simultaneous application; cited from earlier work
[2] = Series A, 3 mg/kg p.o. single dose
[3] = Series B, 30 mg/kg p.o. single dose

SMILES: CN(C)CCC=C1c2ccccc2CCc2ccccc21 [Amitriptyline]
- Percent (duration of immobility vs vehicle) (Male Wistar rats; [2]): 66.3%
- Percent decrease (duration of immobility) (Male Wistar rats; [2]): 43.7%
- Duration of immobility (Male Wistar rats; [2]): 117.8 ± 33.32, n = 8 seconds

SMILES: CN(C)CCCN1c2ccccc2CCc2ccccc21 [Imipramine]
- Percent (duration of immobility vs vehicle) (Male Wistar rats; [3]): 34.9*** Percent
- Percent decrease (duration of immobility) (Male Wistar rats; [3]): 65.1*** Percent
- Duration of immobility (Male Wistar rats; [3]): 76.0 ± 21.1 n = 6 Seconds

SMILES: CN/C(=N/CCSCc1nc[nH]c1C)NC#N [cimetidine]
- Effect on the metabolism of theophylline (in words) [1]: inhibit

SMILES: CC(C)NCC(O)COc1cccc2ccccc12 (centres unmarked) [propranolol]
- Effect on the metabolism of theophylline (in words) [1]: inhibit
